Data on 62 molecules can be found in a melting point compilation (Tetko et al.; mined from patent text by program, amines drawn as free bases though some values may be those of a salt).

Structures are written as SMILES.

By melting point is commonly meant the temperature, or range, at which the solid turns liquid.

In turn, `CCCc1c(OCCCCCCc2cccc(OC(C)=O)c2OC(C)=O)ccc(C(=O)O)c1O` displayed a melting point of 120 to 122 °C.
Then `Cc1c(N)c(C)c2c(c1CCCO)OCC2c1ccc(C(C)C)cc1` (configuration not stated), with 110 to 111 °C.
`CCCCc1nn(-c2cc(NC(=O)CC)ccc2Cl)c(=O)n1Cc1ccc(-c2ccccc2S(N)(=O)=O)cc1F` had a melting point of 135 to 137 °C.
Then `CCCCC(CC(=O)Nc1cc(C(N)=O)ccc1C(C)(C)C)c1cc(Cl)c(OCCCS(=O)(=O)CCC)cc1OC` (configuration not stated), with 144 to 150 °C; and `COc1cc(C=CCn2cncn2)ccc1OCc1ccccc1`, with 70 to 72 °C.
With `CCCCC=CCCCCC(=O)CCCCC=CCCCCC=O`, the melting point was in the range of 80 to 83 °C.
Then `CCc1nc(OC)c(NC(=O)N2CCN(c3cc(C)cc(C)c3)CC2)cc1C(=O)Nc1cc(CO)cc(Nc2c3ccccc3nc3ccccc23)c1`, with 178 to 180 °C; and `NS(=O)(=O)c1ccc(-c2cnn(C3CC=CCC3)c(=O)c2-c2ccc(F)cc2)cc1` (configuration not stated), with 206 to 208 °C; and `COc1cc2c(cc1O)CCCC(=O)N2Cc1cc(OC)c(OC)c(OC)c1`, with 170 to 171 °C.
Then `O=C(O)c1cc(-n2c(-c3ccccc3)cc3c2CCc2cc(Cl)ccc2-3)ccc1O`, with 249 to 251 °C.
Then `O=C1C=C[C@H]2N1CCN1C(=O)C[C@H]3CCCC[C@@]321` (relative stereo), with 159 to 162 °C.
Molecule `CCCCCCCCCCCCCCOc1cc(OCCCCCCc2cccc(O)c2O)cc(C(=O)OC)c1` came in with a melting point of 77 to 79 °C.
`O=C(C(=O)c1ccc(Cl)cc1Cl)c1ccncc1` registered a melting point of 85 °C.
Then `CC(=O)N1CCC(CC(=O)c2ccc(Nc3ncnc4c3CCC4)cc2)CC1`, with 225 to 227 °C; and `C[C@@H](CN1C(=O)c2ccccc2C1=O)CC(F)(F)F`, with 45 to 47 °C.
Then `CSc1sc(-c2nnco2)c2c1C(=O)CC(C)(C)C2`, with 185 to 189 °C; and `Nc1nc(-c2ccccc2)nc2nc(-c3ccco3)nn12`, with more than 300 °C.
Then `CC(C)COC(=O)C(C#N)=CNCCc1ccco1`, with 42 to 44 °C; and `O=C1NC(=O)c2c1cc1ccc3c(c1c2-c1ccncc1)OCO3`, with 299 to 302 °C.
With `CC(=O)SCCNC(=O)[C@H](CSC(C)=O)NC(=O)C(C)C`, the melting point was 125 to 127 °C.
On to `CC(C)[C@H](NC(=O)OCc1ccccc1)C(=O)NC(Cc1ccccc1)C(O)C(Cc1ccccc1)NC(=O)[C@@H](NC(=O)OC(C)(C)C)C(C)C` (some centres not stated), for which the melting point was 184 °C.
Then `COC(=O)Cc1cc(Cl)ccc1O`, with 84 to 85 °C; and `Clc1cc(CCc2ccccn2)c2oc(-c3cnc[nH]3)nc2c1`, with 202 to 209 °C; and `O=C1COc2ccccc2C(=O)C1=CNc1ccccc1`, with 94 to 96 °C.
Take `CC(=O)Nc1ccc(S(=O)(=O)CCN2CCOCC2)cc1`: the melting point fell in the range of 136 to 137 °C.
Then `N[C@@H]1CCN(c2ccc3c(NC(=O)CC4CCCCC4)c(Cl)ccc3n2)C1`, with 201 to 206 °C; and `COc1cccc(C(C)CC(=O)Nc2sc3c(c2C#N)CCNC3)c1` (racemic), with 197 to 200 °C.
Under `O=S(=O)(c1ccccc1)c1ccc(S)cc1` stands 117 °C.
Under `O=C(NCCO)C(F)(OC(F)(F)C(F)(F)C(F)(F)F)C(F)(F)F` (configuration not stated) stands 69 to 72 °C.
In turn, `C=C(C)Cc1c(O)cc(C(C)(C)C)c(OC(C)=O)c1C(C)(C)C` showed a melting point of 102 °C.
In the case of `CNC(=O)c1cc(-c2ccc(OC)cc2)nn(CCO)c1=O`, the melting point fell in the range of 160 to 161 °C.
Then `CC(=O)NC[C@H]1CN(c2ccc(N3CCC(O)(CNC4CC4)CC3)c(F)c2)C(=O)O1`, with 160 to 162 °C.
Under `CCCc1nc2c(N)nc3ccc(-c4cccc(S(C)(=O)=O)c4)cc3c2s1` stands 252 to 255 °C; under `O=C(O)c1cn(C2CC2)c2c(F)c(N3CCC[C@H]3CO)c(F)cc2c1=O`, 209 to 210 °C; under `COc1cc(C=O)c(OC)c(C)c1C`, 69 to 71 °C.
Then `COC(=O)c1cc(CCc2cc(OC)ccc2OC)ccc1N`, with 50 to 55 °C; and `CCCCOc1ccc2c(O)c(C(=O)NCCO)nc(Cl)c2c1`, with 118 to 120 °C.
In turn, `N#Cc1ccc(Cn2cncn2)cc1-c1ccc(OS(N)(=O)=O)cc1` returned a melting point of 159 to 162 °C.
Under `CC1=C(C#N)C(c2cccc([N+](=O)[O-])c2)C2=C(CCCC2=O)N1` (configuration not stated) stands 214 to 216 °C; under `CC1(O)CCC2C3CCC45OC4(C)C(=O)C(C#N)CC5(C)C3CCC21C` (configuration not stated), 166 to 167 °C; under `CCOC(=O)c1c(C)cc2nc(COC(=O)NCCO)n(-c3ccccc3S(=O)(=O)NC)c(=O)c2c1C`, 122 to 125 °C.
`CCOc1ccc(-c2nc(-c3ccc(O)c(C(=O)O)n3)cs2)cc1OCC` had a melting point of 161 to 162 °C.
Then `CC1(C)C(=O)Nc2ccc(N)cc21`, with 185 to 191 °C.
`O=C(CNC(=O)c1ccc(Cl)c(Cl)c1)c1ccoc1` had a melting point of 133 to 134 °C.
Under `CNCC1(C)Cc2cc(NC)c3c(c2C(c2ccccc2)=N1)CC(C)(C)O3` (configuration not stated) stands 126 to 128 °C; under `O=C(Nc1ccccc1)C1=C(Nc2ccccc2)COC1=O`, 175 to 176 °C.
Then `Cc1ccc2c3c(ccc2n1)OCC(CN1CCC(C#N)(c2ccccc2)CC1)O3` (configuration not stated), with 185 to 187 °C; and `COc1ccc2c(c1)C(=O)C1(O)c3ccc(C(C)C)cc3OC21O` (configuration not stated), with 98 to 102 °C.
Under `CC(CCC(=O)NO)NC(=O)C(=O)c1cn2c3c(cccc13)CCC2` (configuration not stated) stands 135 to 137 °C.
`O=C(NC1CCCNC1)c1ccc2[nH]ncc2c1` (configuration not stated) displayed a melting point of 265 to 266 °C.
Consider `CNCC1(c2cccc(C(F)(F)F)c2)CCN(C(=O)CN2CCN(c3cnccn3)CC2)CC1`, for which the melting point fell in the range of 137 to 139 °C.
Under `COC(=O)C1CCCN1C(=O)Cc1c(C)cc(C)cc1C` (configuration not stated) stands 74 °C; under `O=C1CCC(N2C(=O)c3ccc(CNC(=O)c4cc5ccccc5s4)cc3C2=O)C(=O)N1` (configuration not stated), 318 to 320 °C.
Then `Cc1c(-c2ccccc2)oc2c(C(=O)NCCO)cccc2c1=O`, with 206 to 208 °C; and `CN1CCN(c2cc(Cl)nc(-c3ccccc3)n2)CC1`, with 91 to 92.5 °C; and `CN1C(=O)N(c2c(Cl)cccc2Cl)Cc2cnc(NCc3ccccc3)nc21`, with 195 to 198 °C.
In turn, `COc1ccc(C(=O)Nc2ccccc2)cc1NS(=O)(=O)c1cccc2ccccc12` gave a melting point of 212 to 213 °C.
Molecule `O=C1Cc2ccccc2Sc2cc(Cl)c(F)cc21` had a melting point of 125 to 126 °C.
Under `O=C(c1ccnc(F)c1)N1CCC[C@H](c2noc(-c3ccc(F)cc3)n2)C1` stands 117 to 119 °C.
Under `OC(COc1ccc(-c2ccccc2I)cc1)CN1CCCC1` (configuration not stated) stands 72 to 76 °C; under `CC1(C)N=C(c2ccccc2F)c2cc([N+](=O)[O-])cc(Cl)c2NC1=O`, 142 to 143 °C.
In turn, `CCOC(=O)C=Cc1cccnc1OCc1ccc(OCc2nc(-c3ccco3)oc2C)c(OC)c1` showed a melting point of 85 to 87 °C.
